From patent publication US8507411B2, “Neoglycorandomization and digitoxin analogs” (priority 2004, dated 2013)
Where two headings read alike, the source gives them in different places.

Columns and labels:
[1] = tested on: MCF7; assay: High-throughput calcein AM cytotoxicity assay, MCF7; format: cell-based, human; conditions: read-out: IC50, MCF7
Text: (§1) Standard errors are depicted with error bars.

[2] = target: T1, Na+/K+-ATPase (Homo sapiens, UniProt P05023); assay: Non-radioactive rubidium ion uptake assay, HEK-293 cells; format: cell-based; conditions: read-out: Na+/K+-ATPase Inhibition IC50
T1 construct: endogenous in cells; host or cells: HEK-293
Experimental: (§2) Na/K-ATPase Assays. Inhibition of Na^+/K^+-ATPase on HEK-293 cells and CHO-K1 cells by the library hits was determined by Aurora Biomed, Inc. using a high-throughput non-radioactive rubidium ion uptake assay. Experiments were conducted in duplicate using three different concentrations. Within each experiment, percent inhibition values at the three concentrations were expressed as the percent reduction of the maximum absorption signal observed for a 0 nM control. IC50 values were determined using the following formula: IC50=[(50−low %)/(high %−low %)]×(high conc.−low conc.)+low conc.
(§3) To assess how these structural modifications impact the ability of library members to inhibit Na^+/K^+-ATPases, a fundamental activity of cardiac glycosides (Paula, S., et al., (2005) Biochemistry 44, 498-510), library hits 5β, 15β, 23β, 27β, 33β, 40β, and digitoxin (1) were submitted to a non-radioactive rubidium uptake assay to gauge Na^+/K^+-ATPase inhibition in both […] human embryonic kidney cells and CHO-K1 hamster ovary cells (Gill, S. et al., (2004) ASSAY and Drug Development Technologies 2, 535-542).

[3] = tested on: NmuMG; assay: cells; format: cell-based, mouse; conditions: read-out: IC50, NmuMG
In short: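 RPMI 1640 + 10% FBS (NmuMG: DMEM + 10% FBS + insulin); 10–15k cells/well, 1 h attach; 5-pt 2-fold dose series, 72 h; PBS wash, calcein AM 30 min 37 °C; ex485/em535; 4-PL fit, n ≥ 6.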

[4] = tested on: nine human cancer cell lines and a mouse mammary normal epithelial control line; assay: High-throughput calcein AM cytotoxicity assay, whole cell line panel
Text: In the assay, live cells were distinguished by the presence of a ubiquitous intracellular enzymatic activity which converts the non-fluorescent cell-permeable molecule calcein AM to the intensely fluorescent molecule calcein, which is retained within live cells. The IC50 value for each library member represents at least six replicates of dose-response experiments conducted over five concentrations using two-fold dilutions. […] Standard errors are depicted with error bars. Numerical values and corresponding error values can be found in Table 4. Du145: […]; MCF7: human breast carcinoma; HCT-116: human colon carcinoma, Hep3B: human liver carcinoma; SF-268: human CNS glioblastoma; SK-OV-3: human ovary adenocarcinoma; NCI-H460: human lung carcinoma; A549: human lung adenocarcinoma; NCI/ADR-RES: human breast carcinoma; NmuMG: mouse mammary normal epithelial.
Cell Culture: All cell lines except NmuMG were maintained in RPMI 1640 medium from InVitrogen (Cat No. 11875-085) supplemented with 10% w/v fetal bovine serum (FBS) from ICN (Cat No. 2916154) and penicillin-streptomycin (PS) (100 U/mL and 100 μg/mL) from InVitrogen (Cat No. 15140-122). NmuMG cells were maintained in DMEM medium from InVitrogen (Cat No. 11965-084) supplemented with 10% w/v fetal bovine serum (FBS) from ICN (Cat No. 2916154), 10 μg/ml insulin (InVitrogen Cat No 12585-014), and penicillin-streptomycin (PS) (100 U/mL and 100 μg/mL) from InVitrogen (Cat No. 15140-122). Cells were harvested by trypsinization using 0.25% w/v trypsin and 0.1% w/v EDTA from InVitrogen (Cat No. 15-050-057) and then counted in a hemocytometer in duplicate with better than 10% agreement in field counts. Cells were plated at a cell density of 10,000-15,000 cells/well of each Corning Costar 96-well black tissue culture treated microtiter plate (Fisher Cat No. 07-200-627). Cells were grown for 1 h at 37° C., with 5% CO2 in a humidified incubator to allow cell attachment to occur before compound addition.
Library Member Handling and Preparation for Cytotoxicity Assays: Library members were stored at −20° C. under dessicating conditions before the assay. Library member stocks (100×) were prepared in Corning Costar polypropylene 96-well V-bottom polypropylene microtiter plates (Fisher Cat No. 07-200-695). Five serial 1:2 dilutions were made with anhydrous DMSO at 100× the final concentration used in the assay.
Library Member Addition: The library member-containing plates were diluted 1:10 with complete cell culture media. The 10× stocks (10 μL) were added to the attached cells using a Biomek FX liquid handler (Beckman-Coulter). Library member stocks (10 μL) were added to 90 μL of cells in each plate to insure full mixing of stocks with culture media using a Beckman FX liquid handler with 96-well head.
Determination of Cytotoxicity: Cells were incubated with the library members for 72 h before fluorescence reading. Test plates were removed from the incubator and washed 1× in sterile PBS to remove serum containing calcium esterases. Calcein AM reagent (30 μL, […]) was added and the cells were incubated for 30 min at 37° C. Plates were read for emission using a fluorescein filter (excitation 485 nm, emission 535 nm).
IC50 Calculation: For each library member, at least six dose response experiments were conducted. […] To calculate IC50, percent inhibitions were plotted as a function of log [concentration] and then fit to a four-parameter logistic model that allowed for a variable Hill slope using XLfit 4.1.
Cytotoxicity Assays. All cell lines except NmuMG were maintained in RPMI 1640 medium supplemented with 10% w/v fetal bovine serum (FBS) and penicillin-streptomycin (PS) (100 U/mL and 100 μg/mL).

[5] = tested on: NCI-H460; assay: High-throughput calcein AM cytotoxicity assay, NCI-H460; format: cell-based, human; conditions: read-out: IC50, NCI-H460
Text: as §1

[6] = tested on: Du145; assay: High-throughput calcein AM cytotoxicity assay, Du145; format: cell-based, human; conditions: read-out: IC50, Du145
Text: as §1

[7] = target: Na+/K+-ATPase (Cricetulus griseus, UniProt A0A8C2N4Z0); assay: Non-radioactive rubidium ion uptake assay, CHO-K1 cells; format: cell-based, hamster; conditions: read-out: Na+/K+-ATPase Inhibition IC50
Experimental: as §2, §3

[8] = NmuMG mouse mammary normal epithelial control line

Compound: C[C@H]1O[C@@H](O[C@H]2[C@@H](O)C[C@H](O[C@H]3[C@@H](O)C[C@H](O[C@H]4CC[C@@]5(C)[C@H](CC[C@@H]6[C@@H]5CC[C@]5(C)[C@@H](C7=CC(=O)OC7)CC[C@]65O)C4)O[C@@H]3C)O[C@@H]2C)C[C@H](O)[C@@H]1O [digitoxin]
- IC50 ([1]; Homo sapiens, MCF7, MCF7 cells): 320 nM
- IC50 [2]: 75400 ± 500 nM
- IC50 ([3]; Mus musculus): > 25000 nM
- IC50 ([4]; Homo sapiens, read-out: average IC50): ~440 nM
- IC50 ([5]; Homo sapiens, NCI-H460, NCI-H460 cells): 280 nM
- IC50 ([6]; Homo sapiens, DU-145, Du145 cells): 260 nM

Compound: CON([C@H]1CC[C@@]2(C)[C@H](CC[C@@H]3[C@@H]2CC[C@]2(C)[C@@H](C4=CC(=O)OC4)CC[C@]32O)C1)[C@@H]1O[C@H](CO)[C@@H](O)[C@H](O)[C@@H]1O [27β, D-mannoside]
- IC50 ([1]; MCF7 cells): 1700 nM
- IC50 [2]: > 200000 nM
- IC50 [3, 8]: 1000 nM
- IC50 [7]: > 300000 nM
- IC50 ([5]; NCI-H460 cells): 700 nM
- IC50 ([6]; Du145 cells): 1300 nM

Compound: CON([C@H]1CC[C@@]2(C)[C@H](CC[C@@H]3[C@@H]2CC[C@]2(C)[C@@H](C4=CC(=O)OC4)CC[C@]32O)C1)[C@H]1OC[C@H](O)[C@H](O)[C@@H]1O [5β, L-riboside]
- IC50 ([1]; MCF7 cells): 190 nM
- IC50 [2]: > 300000 nM
- IC50 [3, 8]: 31 nM
- IC50 ([4]; range over cell lines): 18 to 59 nM
- IC50 [7]: 270000 nM
- IC50 ([5]; NCI-H460 cells): 53 nM
- IC50 ([6]; Du145 cells): 300 nM

Compound: CON([C@H]1CC[C@@]2(C)[C@H](CC[C@@H]3[C@@H]2CC[C@]2(C)[C@@H](C4=CC(=O)OC4)CC[C@]32O)C1)[C@H]1OC[C@H](O)[C@@H](O)[C@@H]1O [23β, L-xyloside]
- IC50 ([1]; MCF7 cells): 230 nM
- IC50 [2]: > 300000 nM
- IC50 [3, 8]: 57 nM
- cytotoxicity (in words) ([4]; cell line panel, 72 h, calcein AM): significantly more potent than digitoxin against some cell lines
- IC50 [7]: > 500000 nM
- IC50 ([5]; NCI-H460 cells): 80 nM
- IC50 ([6]; Du145 cells): 620 nM
